From patent US20240349726A1, “SUBSTITUTED 1,2,4-THIADIAZOLYL NICOTINAMIDES, SALTS OR N-OXIDES THEREOF AND THEIR USE AS HERBICIDALLY ACTIVE SUBSTANCES” (Bayer Aktiengesellschaft, priority 2021, published 2024)

What was measured:
Type in all cases: in vivo
Veronica persica [1] = assay: Herbicidal pre-emergence action, VERPE; conditions: 1280 g/ha, visual grading after ca. 3 weeks vs untreated controls
Description: (§1) Seeds of mono- and dicotyledonous weed plants were sown in plastic pots (double sowings with one species of mono- and one species of dicotyledonous weed plants per pot), in sandy loam, and covered with soil. The compounds according to the invention, formulated in the form of wettable powders (WP) or as emulsifiable concentrates (EC), were applied to the surface of the covering soil as an aqueous suspension or as an emulsion, with the addition of 0.5% of an additive, at an application rate of 600 litres of water per hectare (converted). Following treatment, the pots were placed in a greenhouse and kept under optimum growth conditions for the test plants. The visual grading of the damage to the test plants is carried out after ca. 3 weeks in comparison to untreated controls (herbicidal effect in percent (%): 100% effect=plants have died, 0% effect=as control plants). Seeds of mono- and dicotyledonous weed plants were sown in plastic pots (double sowings with one species of mono- and one species of dicotyledonous weed plants per pot), in sandy loam, and covered with soil. The compounds according to the invention, formulated in the form of wettable powders (WP) or as emulsifiable concentrates (EC), were applied to the surface of the covering soil as an aqueous suspension or as an emulsion, with the addition of 0.5% of an additive, at an application rate of 600 litres of water per hectare (converted). Following treatment, the pots were placed in a greenhouse and kept under optimum growth conditions for the test plants. The visual grading of the damage to the test plants is carried out after ca. 3 weeks in comparison to untreated controls (herbicidal effect in percent (%): 100% effect=plants have died, 0% effect=as control plants).

Stellaria media [2] = assay: Herbicidal pre-emergence action, STEME; conditions: visual grading after ca. 3 weeks vs untreated controls
Description: as §1

Amaranthus retroflexus [3] = assay: Herbicidal pre-emergence action, AMARE; conditions: 1280 g/ha, visual grading after ca. 3 weeks vs untreated controls
Description: as §1

Stellaria media [4] = assay: Herbicidal post-emergence action, STEME; conditions: assessed visually after ca. 3 weeks vs untreated controls
Description: (§2) Seeds of mono- and dicotyledonous weed plants were sown in plastic pots (double sowings with one species of mono- and one species of dicotyledonous weed plants per pot), in sandy loam, covered with soil and grown under controlled growth conditions. 2 to 3 weeks after sowing, the test plants were sprayed in the single-leaf stage. The compounds according to the invention, formulated in the form of wettable powders (WP) or as emulsifiable concentrates (EC), were sprayed onto the green plant parts as an aqueous suspension or as an emulsion, with the addition of 0.5% of an additive, at an application rate of 600 litres of water per hectare (converted). The test plants were placed in the greenhouse for ca. 3 weeks under optimum growth conditions, and then the effect of the preparations is assessed visually in comparison with untreated controls (herbicidal effect in percent (%): 100% effect=plants have died, 0% effect=as control plants). […]

Poa annua [5] = assay: Herbicidal pre-emergence action, POAAN; conditions: visual grading after ca. 3 weeks vs untreated controls
Description: as §1

Amaranthus retroflexus [6] = assay: Herbicidal post-emergence action, AMARE; conditions: assessed visually after ca. 3 weeks vs untreated controls
Description: as §2

Matricaria inodora [7] = assay: Herbicidal pre-emergence action, MATIN; conditions: visual grading after ca. 3 weeks vs untreated controls
Description: as §1

Veronica persica [8] = assay: Herbicidal post-emergence action, VERPE; conditions: assessed visually after ca. 3 weeks vs untreated controls
Description: as §2

Matricaria inodora [9] = assay: Herbicidal post-emergence action, MATIN; conditions: assessed visually after ca. 3 weeks vs untreated controls
Description: as §2

Poa annua [10] = assay: Herbicidal post-emergence action, POAAN; conditions: 1280 g/ha, assessed visually after ca. 3 weeks vs untreated controls
Description: as §2

Lolium rigidum [11] = assay: Herbicidal pre-emergence action, LOLRI; conditions: visual grading after ca. 3 weeks vs untreated controls
Description: as §1

Lolium rigidum [12] = assay: Herbicidal post-emergence action, LOLRI; conditions: 1280 g/ha, assessed visually after ca. 3 weeks vs untreated controls
Description: as §2

Kochia scoparia = assay: Herbicidal post-emergence action, KCHSC; conditions: assessed visually after ca. 3 weeks vs untreated controls
Description: as §2

Abutilon theophrasti = assay: Herbicidal post-emergence action, ABUTH; conditions: assessed visually after ca. 3 weeks vs untreated controls
Description: as §2

With `Cc1ccnc(Cl)c1C(=O)Nc1ncns1` [Example I-003] the “herbicidal effect VERPE” value (Veronica persica [1]) was 90%, the “herbicidal effect STEME” value (Stellaria media [2]; 1280 g/ha) was 100% and the “herbicidal effect AMARE” value (Amaranthus retroflexus [3]) was 100%. The “herbicidal effect STEME” value (Stellaria media [4]; 1280 g/ha) was 90%, the “herbicidal effect POAAN” value (Poa annua [5]; 1280 g/ha) was 100% and the “herbicidal effect AMARE” value (Amaranthus retroflexus [6]; 320 g/ha) was 90%. For the same molecule, the “herbicidal effect AMARE” value (Amaranthus retroflexus [6]; 1280 g/ha) was 90%, the “herbicidal effect MATIN” value (Matricaria inodora [7]; 1280 g/ha) was 100% and the “herbicidal effect VERPE” value (Veronica persica [8]; 320 g/ha) was 90%. For the same molecule, the “herbicidal effect VERPE” value (Veronica persica [8]; 1280 g/ha) was 100%.
With `O=C(Nc1ncns1)c1cnc(Cl)cc1C(F)(F)F` [Example I-024] the “herbicidal effect AMARE” value (Amaranthus retroflexus [6]; 1280 g/ha) was 90%, the “herbicidal effect MATIN” value (Matricaria inodora [9]; 320 g/ha) was 90% and the “herbicidal effect MATIN” value (Matricaria inodora [9]; 1280 g/ha) was 100%. For the same molecule, the “herbicidal effect MATIN” value (Matricaria inodora [7]; 1280 g/ha) was 90% and the “herbicidal effect VERPE” value (Veronica persica [8]; 1280 g/ha) was 90%.
With `CCc1ccnc(Cl)c1C(=O)Nc1ncns1` [Example I-004] the “herbicidal effect STEME” value (Stellaria media [2]; 1280 g/ha) was 100%, the “herbicidal effect AMARE” value (Amaranthus retroflexus [3]) was 90% and the “herbicidal effect POAAN” value (Poa annua [10]) was 100%. For the same molecule, the “herbicidal effect POAAN” value (Poa annua [5]; 1280 g/ha) was 90%, the “herbicidal effect AMARE” value (Amaranthus retroflexus [6]; 1280 g/ha) was 100% and the “herbicidal effect LOLRI” value (Lolium rigidum [11]; 1280 g/ha) was 100%. The “herbicidal effect MATIN” value (Matricaria inodora [7]; 1280 g/ha) was 90% and the “herbicidal effect VERPE” value (Veronica persica [8]; 1280 g/ha) was 100%.
In the case of `O=C(Nc1ncns1)c1c(C(F)(F)F)ccnc1Cl` [Example I-021], the “herbicidal effect VERPE” value (Veronica persica [1]) is reported as 90%, the “herbicidal effect STEME” value (Stellaria media [2]; 320 g/ha) is reported as 90% and the “herbicidal effect STEME” value (Stellaria media [2]; 1280 g/ha) is reported as 100%. The “herbicidal effect AMARE” value (Amaranthus retroflexus [3]) was 100%, the “herbicidal effect POAAN” value (Poa annua [10]) was 100% and the “herbicidal effect LOLRI” value (Lolium rigidum [12]) was 90%. For the same molecule, the “herbicidal effect STEME” value (Stellaria media [4]; 320 g/ha) was 90%, the “herbicidal effect STEME” value (Stellaria media [4]; 1280 g/ha) was 100% and the “herbicidal effect KCHSC” value (Kochia scoparia; 320 g/ha) was 90%. The “herbicidal effect KCHSC” value (Kochia scoparia; 1280 g/ha) was 100%, the “herbicidal effect POAAN” value (Poa annua [5]; 320 g/ha) was 90% and the “herbicidal effect POAAN” value (Poa annua [5]; 1280 g/ha) was 100%. For the same molecule, the “herbicidal effect AMARE” value (Amaranthus retroflexus [6]; 320 g/ha) was 100%, the “herbicidal effect AMARE” value (Amaranthus retroflexus [6]; 1280 g/ha) was 100% and the “herbicidal effect MATIN” value (Matricaria inodora [9]; 320 g/ha) was 100%. For the same molecule, the “herbicidal effect MATIN” value (Matricaria inodora [9]; 1280 g/ha) was 100%, the “herbicidal effect LOLRI” value (Lolium rigidum [11]; 320 g/ha) was 90% and the “herbicidal effect LOLRI” value (Lolium rigidum [11]; 1280 g/ha) was 100%. The “herbicidal effect MATIN” value (Matricaria inodora [7]; 320 g/ha) was 90%, the “herbicidal effect MATIN” value (Matricaria inodora [7]; 1280 g/ha) was 100% and the “herbicidal effect VERPE” value (Veronica persica [8]; 320 g/ha) was 100%. The “herbicidal effect VERPE” value (Veronica persica [8]; 1280 g/ha) was 100%, the “herbicidal effect ABUTH” value (Abutilon theophrasti; 320 g/ha) was 90% and the “herbicidal effect ABUTH” value (Abutilon theophrasti; 1280 g/ha) was 100%.
With `Cc1cc(Cl)nc(Cl)c1C(=O)Nc1ncns1` [Example I-020, 2,6-dichloro-4-methyl-N-(1,2,4-thiadiazol-5-yl)pyridine-3-carboxamide] the “herbicidal effect STEME” value (Stellaria media [2]; 320 g/ha) was 90%, the “herbicidal effect STEME” value (Stellaria media [2]; 1280 g/ha) was 100% and the “herbicidal effect AMARE” value (Amaranthus retroflexus [3]) was 90%. The “herbicidal effect STEME” value (Stellaria media [4]; 1280 g/ha) was 90%, the “herbicidal effect AMARE” value (Amaranthus retroflexus [6]; 1280 g/ha) was 90% and the “herbicidal effect MATIN” value (Matricaria inodora [9]; 1280 g/ha) was 90%. For the same molecule, the “herbicidal effect MATIN” value (Matricaria inodora [7]; 1280 g/ha) was 90% and the “herbicidal effect VERPE” value (Veronica persica [8]; 1280 g/ha) was 100%.
With `CC(C)c1ccnc(Cl)c1C(=O)Nc1ncns1` [Example I-026, 2-chloro-4-isopropyl-N-(1,2,4-thiadiazol-5-yl)pyridine-3-carboxamide] the “herbicidal effect STEME” value (Stellaria media [2]; 320 g/ha) was 90%, the “herbicidal effect STEME” value (Stellaria media [2]; 1280 g/ha) was 100% and the “herbicidal effect AMARE” value (Amaranthus retroflexus [3]) was 100%. The “herbicidal effect STEME” value (Stellaria media [4]; 1280 g/ha) was 100%, the “herbicidal effect KCHSC” value (Kochia scoparia; 1280 g/ha) was 90% and the “herbicidal effect AMARE” value (Amaranthus retroflexus [6]; 320 g/ha) was 90%. For the same molecule, the “herbicidal effect AMARE” value (Amaranthus retroflexus [6]; 1280 g/ha) was 100%, the “herbicidal effect LOLRI” value (Lolium rigidum [11]; 1280 g/ha) was 100% and the “herbicidal effect MATIN” value (Matricaria inodora [7]; 1280 g/ha) was 100%. For the same molecule, the “herbicidal effect VERPE” value (Veronica persica [8]; 1280 g/ha) was 90%.
For `Cc1ccnc(Br)c1C(=O)Nc1ncns1` [Example I-022, 2-bromo-4-methyl-N-(1,2,4-thiadiazol-5-yl)pyridine-3-carboxamide], the “herbicidal effect STEME” value (Stellaria media [2]; 1280 g/ha) was 100%, the “herbicidal effect STEME” value (Stellaria media [4]; 1280 g/ha) was 90% and the “herbicidal effect AMARE” value (Amaranthus retroflexus [6]; 1280 g/ha) was 90%.
